Measurements published in patent US8470847B2, “Derivatives of 7-alkynyl-1,8-naphthyridones, preparation method thereof and use of same in therapeutics” (Sanofi, priority 2007, dated 2013).

Key:
VEGFR-3 = VEGFR-3 (Homo sapiens (Human), UniProt P35916); experiment: Measurement of the tyrosine kinase activity of VEGFR-3 by ELISA; assay type: biochemical; settings: VEGFR-3-TK, poly Glu-Tyr substrate, 30 μM ATP
VEGFR-3, sequence (P35916 845-1173): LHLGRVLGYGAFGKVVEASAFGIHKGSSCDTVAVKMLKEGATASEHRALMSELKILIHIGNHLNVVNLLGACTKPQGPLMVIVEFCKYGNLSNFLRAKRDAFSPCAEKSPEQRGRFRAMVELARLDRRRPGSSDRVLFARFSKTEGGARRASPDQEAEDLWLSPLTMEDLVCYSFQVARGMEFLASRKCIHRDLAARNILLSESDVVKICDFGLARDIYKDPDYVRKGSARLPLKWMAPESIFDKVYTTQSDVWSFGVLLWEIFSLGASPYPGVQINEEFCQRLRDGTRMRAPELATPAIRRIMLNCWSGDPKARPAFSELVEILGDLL
Procedure: Measurement of the Tyrosine Kinase Activity of VEGFR-3 by ELISA
The enzymatic activity of VEGFR-3 is evaluated on an ELISA assay by measuring the intensity of phosphorylation of the substrate poly Glu-Tyr. […] The plate is then covered with an adhesive film and incubated overnight at 37° C. The following day, the wells are emptied by turning the plate over, washed by adding 300 μl of buffer solution (PBS+0.05% Tween 20) and dried by further incubation of the plate for 2 h at 37° C. A 90 μl reaction mixture is deposited onto each well. […] The plates are then incubated with gentle agitation at ambient temperature for 30 min. After 3 rinses with the buffer solution (300 μl/well per wash), 100 μl of anti-phosphotyrosine-HRP antibody ( 1/30 000) are added to each well and the plates are again incubated for 30 min at ambient temperature with gentle agitation. […] The total activity is evaluated by the difference in optical density obtained on samples incubated in the presence (stimulated) and in the absence (non-stimulated) of VEGFR-3.

Row | Structure (SMILES) | melting point [°C] | IC50 (VEGFR-3) [nM]
1 | CCn1c(N)c(C(=O)NC)c(=O)c2ccc(C#CC(C)(O)c3cnccn3)nc21 (racemic) [Compound 48, (±)-2-Amino-1-ethyl-7-(3-hydroxy-3-pyrazin-2-ylbut-1-yn-1-yl)-N-methyl-4-oxo-1,4-dihydro-1,8-naphthyridine-3-carboxamide] | 271 | –
2 | CCn1c(N)c(C(=O)NC)c(=O)c2ccc(C#CC(C)(O)COC)nc21 (single isomer, unassigned; (-)) [Compound 72, (−)-2-amino-1-ethyl-7-(3-hydroxy-4-methoxy-3-methylbut-1-yn-1-yl)-N-methyl-4-oxo-1,4-dihydro-1,8-naphthyridine-3-carboxamide] | – | 23
3 | CNC(=O)c1c(N)n(Cc2ccccn2)c2nc(C#CC(C)(O)COC)ccc2c1=O (racemic) | 169 | –
4 | CCn1c(N)c(C(=O)NC)c(=O)c2ccc(C#CC(O)C3CCCC3)nc21 (racemic) [Compound 10, (±)-2-Amino-7-(3-cyclopentyl-3-hydroxyprop-1-yn-1-yl)-1-ethyl-N-methyl-4-oxo-1,4-dihydro-1,8-naphthyridine-3-carboxamide] | 253 | –
5 | CNC(=O)c1c(N)n(C2CCCC2)c2nc(C#CC(C)(O)CO)ccc2c1=O (racemic) [Compound 53, (±)-2-Amino-1-cyclopentyl-7-(3,4-dihydroxy-3-methylbut-1-yn-1-yl)-N-methyl-4-oxo-1,4-dihydro-1,8-naphthyridine-3-carboxamide] | 210.5 | –

Now from value to compound, other results behind:

Row | melting point [°C] | Structure (SMILES) | IC50 (VEGFR-3) [nM]
6 | 208 | CCn1c(N)c(C(=O)NC)c(=O)c2ccc(C#CC(O)(COC)C3CC3)nc21 (racemic) [Compound 50, (±)-2-Amino-7-(3-cyclopropyl-3-hydroxy-4-methoxybut-1-yn-1-yl)-1-ethyl-N-methyl-4-oxo-1,4-dihydro-1,8-naphthyridine-3-carboxamide] | –
7 | 253 | CCn1c(N)c(C(=O)NC)c(=O)c2ccc(C#CC3(O)CCOC3)nc21 (racemic) [Compound 7, (±)-2-Amino-1-ethyl-7-[(3-hydroxytetrahydrofuran-3-yl)ethynyl]-N-methyl-4-oxo-1,4-dihydro-1,8-naphthyridine-3-carboxamide] | –
